In publication PMC8540821, “Estimation of the Difference in Colistin Plasma Levels in Critically Ill Patients with Favorable or Unfavorable Clinical Outcomes” (Pharmaceutics, 2021):
≈ marks a conversion by molar mass, not a printed value. Where two headings read alike, the source gives them in different places. Where a SMILES comes first, the peptide text is derived from it. Bridges are numbered along the chain shown (N, C = ends). [ ]: non-standard residue; d: D form. The star is where a group is joined. X1 = CC[C@H](C)CCCCC(=O)*; Dab = NCC[C@H](N)C(=O)O

Legend:
[1] = system: P. aeruginosa; assay: Susceptibility of clinical isolates (VITEK 2; MIC by broth dilution on microplate); type: cell-based, Pseudomonas aeruginosa; details: for MIC: Pseudomonas aeruginosa, broth dilution
Source text: (§1) The bacterial isolates were recovered in MacConkey agar (Oxoid-Thermo Scientific®, Hampshire, UK) and sent to the Bacterial Molecular Genetics Laboratory in AMIES transport media (COPAN). […] The MICs of meropenem, amikacin, and colistin were established by the broth dilution method on a microplate. E. coli ATCC® 25922^TM and P. aeruginosa ATCC® 27853^TM strains was used as a susceptibility control (American Type Culture Collection). Finally, the carbapenemase genes blaIMP, blaOXA-48, blaVIM, blaGES, blaKPC, and blaNDM were assessed by multiplex PCR [45].

[2] = system: A. baumannii; assay: as above; type: cell-based, Acinetobacter baumannii; details: for MIC: Acinetobacter baumannii, broth dilution, one isolate; for isolates I (intermediate), n (%) / isolates R (resistant), n (%) / isolates S (susceptible), n (%): n = 1, favorable outcome
Source text: as §1

[3] = system: K. pneumoniae; assay: as above; type: cell-based, Klebsiella pneumoniae; details: for MIC: Klebsiella pneumoniae, broth dilution, read-out: highest MIC
Source text: as §1

[4] = clinical; details: human, in vivo, plasma Cmin, fourth day of treatment, HPLC-UV, median (IQR), read-out: Colistin levels, Median, IQR
Method: The doses were prescribed by the treating physician based on the institution’s drug-therapeutic guidelines (load of 1 mg/kg and maintenance of 3 mg/kg per day, divided into three doses). Measurement of the colistin concentration in plasma was performed on the fourth day of treatment, when it was assumed that the colistin concentrations would have reached a steady state. Colistin plasma concentrations (Cmin) were measured just before CMS administration. Cmin was chosen because it is more convenient from a practical point of view. Clinical outcomes were classified as (a) favorable (absence of fever (T < 38 °C); leukocytosis <12,000; not requiring vasopressors; in infections in which control cultures could be obtained, these cultures must be sterile within 7 days of treatment and without changes in the initial antimicrobial regimen within of the first 7 days of treatment. In addition, mortality at 30 days was measured as a secondary outcome; or (b) unfavorable (in the case of fever > 38 °C; leukocytosis > 12,000; requirement for a vasopressor or the presence of positive control cultures for the initial microorganism). The clinical outcomes were determined by consensus of at least two physicians on the study team. If all the criteria were met, the patient was assigned as having a favorable outcome; if one criterion was not met, the outcome was considered not favorable. […]

[5] = cited from earlier work
Source text: Colistin has been clinically available since the 1950s, but it soon fell into disuse, mainly due to its nephrotoxic potential. Alongside its nephrotoxicity, which ranges between 0 and 58% in different studies, some evidence has found the incidence of peripheral neuropathy may be up to 50% with its use, as the main manifestation of neurotoxicity. The lack of other available options has increased the use of colistin in MDR infections, even with its safety profile. The pharmacokinetics of colistin are complex. Colistin is available as a sulfate and as sodium colis ...

[6] = system: C. freundii; assay: Susceptibility of clinical isolates (VITEK 2; MIC by broth dilution on microplate); type: cell-based; details: n = 1, unfavorable outcome
Source text: as §1

[7] = Acute kidney injury / renal failure (serum creatinine increase above 0.3 mg/dl in 48 h) by colistin level; type: in vivo, human; details: high colistin levels n = 2
Method: Regarding the incidence of renal failure, defined as an increase in serum creatinine above 0.3 mg/dl in 48 h, this occurred in 20.7% of patients with low colistin levels, in 50% of patients with normal colistin levels, and in 50% of patients with high colistin levels (Table 5).

[8] = system: E. cloacae; assay: Susceptibility of clinical isolates (VITEK 2; MIC by broth dilution on microplate); type: cell-based, Enterobacter cloacae; details: for isolates I (intermediate), n (%) / isolates R (resistant), n (%) / isolates S (susceptible), n (%): n = 1, favorable outcome
Source text: as §1

[9] = system: P. putida; assay: as above; type: cell-based, Pseudomonas putida
Source text: as §1

[10] = system: E. coli; assay: as above; type: cell-based, Escherichia coli; details: n = 1, favorable outcome
Source text: as §1

[11] = system: multiresistant Gram-negative carbapenemase-producing bacteria; assay: Clinical outcome at day 7 and 30-day mortality in patients treated with CMS; type: in vivo, human
Method: This prospective observational study was conducted from September 2017 and June 2020 at a university clinic in the Hospitalization and Critical Care services. The participation of patients in the study was according to the proposed inclusion criteria. Patients over 18 years old, hospitalized for infections caused by multiresistant Gram-negative carbapenemase-producing bacteria, diagnosed in hospital at the clinic of the University of La Sabana, who had been treated with CMS for at least 7 days at the institution, were included. […] Detailed demographic (age, sex, weight), clinical (site of infection, severity of disease, comorbidities (Charlson comorbidity index), CMS loading dose, CMS maintenance dose, duration of treatment, days of stay in the hospital, mortality, carbapenemase class, concomitant antibiotic therapy), laboratory (hemoglobin, red blood cell, neutrophil and platelet counts, serum creatinine and glomerular filtration rate (GFR)), and microbiological (bacterial isolation and characterization) data from each patient were recorded.
The doses were prescribed by the treating physician based on the institution’s drug-therapeutic guidelines (load of 1 mg/kg and maintenance of 3 mg/kg per day, divided into three doses). Measurement of the colistin concentration in plasma was performed on the fourth day of treatment, when it was assumed that the colistin concentrations would have reached a steady state. Colistin plasma concentrations (Cmin) were measured just before CMS administration. Cmin was chosen because it is more convenient from a practical point of view. Clinical outcomes were classified as (a) favorable (absence of fever (T < 38 °C); leukocytosis <12,000; not requiring vasopressors; in infections in which control cultures could be obtained, these cultures must be sterile within 7 days of treatment and without changes in the initial antimicrobial regimen within of the first 7 days of treatment. In addition, mortality at 30 days was measured as a secondary outcome; or (b) unfavorable (in the case of fever > 38 °C; leukocytosis > 12,000; requirement for a vasopressor or the presence of positive control cultures for the initial microorganism). The clinical outcomes were determined by consensus of at least two physicians on the study team. If all the criteria were met, the patient was assigned as having a favorable outcome; if one criterion was not met, the outcome was considered not favorable.

[12] = isolates from patients with favorable outcome n = 10
[13] = isolates from patients with unfavorable outcome n = 14

Compound: NCC[C@H](O)C(=O)N[C@@H]1C[C@H](N)[C@@H](O[C@H]2O[C@H](CN)[C@@H](O)[C@H](O)[C@H]2O)[C@H](O)[C@H]1O[C@H]1O[C@H](CO)[C@@H](O)[C@H](N)[C@H]1O [amikacin]
- MIC ([1]; established in 23.3% of isolates, read-out: highest MIC): 128 µg/mL (≈ 219 µM)
- MIC [2]: 64 µg/mL (≈ 109 µM)
- MIC [3]: 64 µg/mL (≈ 109 µM)

Compound: CC[C@H](C)CCCCC(=O)N[C@@H](CCN)C(=O)N[C@H](C(=O)N[C@@H](CCN)C(=O)N[C@H]1CCNC(=O)[C@H]([C@@H](C)O)NC(=O)[C@H](CCN)NC(=O)[C@H](CCN)NC(=O)[C@H](CC(C)C)NC(=O)[C@@H](CC(C)C)NC(=O)[C@H](CCN)NC1=O)[C@@H](C)O [colistin] (X1-[Dab]T[Dab][Dab][Dab][dL]L[Dab][Dab]T; lactam 4-C)
- level at 96 h ([4]; favorable clinical outcome n = 34, p = 0.167 vs unfavorable): 160 ng/mL
- level at 96 h ([4]; unfavorable clinical outcome n = 23): 540 ng/mL
- calculated volume of distribution [5]: 0.34 L/kg
- half-life [5]: 4.18 h
- isolates I (intermediate), n (%) [6]: 1 (100) n (%)
- isolates R (resistant), n (%) [6]: 0 (0) n (%)
- isolates S (susceptible), n (%) [6]: 0 (0) n (%)
- Acute kidney injury, n, % [7]: 1 (50%) n, %
- isolates I (intermediate), n (%) [8]: 0 (0) n (%)
- isolates R (resistant), n (%) [8]: 1 (100) n (%)
- isolates S (susceptible), n (%) [8]: 0 (0) n (%)
- isolates I (intermediate), n (%) ([9]; favorable outcome n = 1): 1 (100) n (%)
- isolates R (resistant), n (%) ([9]; favorable outcome n = 1): 0 (0) n (%)
- isolates S (susceptible), n (%) ([9]; favorable outcome n = 1): 0 (0) n (%)
- isolates I (intermediate), n (%) ([9]; unfavorable outcome n = 1): 0 (0) n (%)
- isolates R (resistant), n (%) ([9]; unfavorable outcome n = 1): 0 (0) n (%)
- isolates S (susceptible), n (%) ([9]; unfavorable outcome n = 1): 1 (100) n (%)
- isolates I (intermediate), n (%) [1, 12]: 4 (40) n (%)
- isolates R (resistant), n (%) [1, 12]: 4 (40) n (%)
- isolates S (susceptible), n (%) [1, 12]: 2 (20) n (%)
- isolates I (intermediate), n (%) [1, 13]: 6 (42.8) n (%)
- isolates R (resistant), n (%) [1, 13]: 7 (50) n (%)
- isolates S (susceptible), n (%) [1, 13]: 1 (7.14) n (%)
- isolates I (intermediate), n (%) [2]: 1 (100) n (%)
- isolates R (resistant), n (%) [2]: 0 (0) n (%)
- isolates S (susceptible), n (%) [2]: 0 (0) n (%)
- isolates I (intermediate), n (%) [10]: 1 (100) n (%)
- isolates R (resistant), n (%) [10]: 0 (0) n (%)
- isolates S (susceptible), n (%) [10]: 0 (0) n (%)
- isolates I (intermediate), n (%) ([3]; favorable outcome n = 3): 1 (33.3) n (%)
- isolates R (resistant), n (%) ([3]; favorable outcome n = 3): 2 (66.7) n (%)
- isolates S (susceptible), n (%) ([3]; favorable outcome n = 3): 0 (0) n (%)
- isolates I (intermediate), n (%) ([3]; unfavorable outcome n = 2): 0 (0) n (%)
- isolates R (resistant), n (%) ([3]; unfavorable outcome n = 2): 0 (0) n (%)
- isolates S (susceptible), n (%) ([3]; unfavorable outcome n = 2): 2 (100) n (%)
- 30 days mortality, n, % ([11]; high colistin levels n = 2 (>4 µg/mL)): 0 (0%) n, %
- 30 days mortality, n, % ([11]; normal colistin levels n = 2 (2 to 4 µg/mL)): 0 (0%) n, %
- Favorable clinical outcomes ([11]; patients with colistin levels within the normal range): 50%
- Favorable clinical outcomes ([11]; patients with levels above the limit of normality): 50%
- Favorable clinical outcomes ([11]; patients with low colistin levels): 60%

Compound: CN(C)c1cc(NC(=O)CNC(C)(C)C)c(O)c2c1C[C@H]1C[C@H]3[C@H](N(C)C)C(O)=C(C(N)=O)C(=O)[C@@]3(O)C(O)=C1C2=O [Glycylcyclines, tigecycline]
- isolates I (intermediate), n (%) [6]: 1 (100) n (%)
- isolates R (resistant), n (%) [6]: 0 (0) n (%)
- isolates S (susceptible), n (%) [6]: 0 (0) n (%)
- isolates I (intermediate), n (%) [8]: 0 (0) n (%)
- isolates R (resistant), n (%) [8]: 0 (0) n (%)
- isolates S (susceptible), n (%) [8]: 1 (100) n (%)
- isolates I (intermediate), n (%) ([9]; favorable outcome n = 1): 1 (100) n (%)
- isolates R (resistant), n (%) ([9]; favorable outcome n = 1): 0 (0) n (%)
- isolates S (susceptible), n (%) ([9]; favorable outcome n = 1): 0 (0) n (%)
- isolates I (intermediate), n (%) ([9]; unfavorable outcome n = 1): 0 (0) n (%)
- isolates R (resistant), n (%) ([9]; unfavorable outcome n = 1): 0 (0) n (%)
- isolates S (susceptible), n (%) ([9]; unfavorable outcome n = 1): 1 (100) n (%)
- isolates I (intermediate), n (%) [1, 12]: 0 (0) n (%)
- isolates R (resistant), n (%) [1, 12]: 9 (90) n (%)
- isolates S (susceptible), n (%) [1, 12]: 0 (0) n (%)
- isolates I (intermediate), n (%) [1, 13]: 0 (0) n (%)
- isolates R (resistant), n (%) [1, 13]: 11 (78.6) n (%)
- isolates S (susceptible), n (%) [1, 13]: 0 (0) n (%)
- isolates I (intermediate), n (%) [2]: 0 (0) n (%)
- isolates R (resistant), n (%) [2]: 0 (0) n (%)
- isolates S (susceptible), n (%) [2]: 1 (100) n (%)
- isolates I (intermediate), n (%) [10]: 0 (0) n (%)
- isolates R (resistant), n (%) [10]: 0 (0) n (%)
- isolates S (susceptible), n (%) [10]: 1 (100) n (%)
- isolates I (intermediate), n (%) ([3]; favorable outcome n = 3): 0 (0) n (%)
- isolates R (resistant), n (%) ([3]; favorable outcome n = 3): 0 (0) n (%)
- isolates S (susceptible), n (%) ([3]; favorable outcome n = 3): 1 (33.3) n (%)
- isolates I (intermediate), n (%) ([3]; unfavorable outcome n = 2): 0 (0) n (%)
- isolates R (resistant), n (%) ([3]; unfavorable outcome n = 2): 0 (0) n (%)
- isolates S (susceptible), n (%) ([3]; unfavorable outcome n = 2): 2 (100) n (%)

Compound: colistimethate sodium [CMS]
- half-life ([5]; in vivo): 2.07 h

Compound: C[C@@H](O)[C@H]1C(=O)N2C(C(=O)O)=C(S[C@@H]3CN[C@H](C(=O)N(C)C)C3)[C@H](C)[C@H]12 [meropenem]
- MIC ([8]; Enterobacter cloacae, broth dilution, read-out: highest MIC): 32 µg/mL (≈ 83.4 µM)
- MIC ([9]; Pseudomonas putida, broth dilution, one isolate): > 1020 µg/mL
- MIC ([1]; found in 56.7% of isolates, 88.2% of which harbored KPC and VIM, read-out: MIC): > 1020 µg/mL
- MIC [2]: 64 µg/mL (≈ 167 µM)
- MIC [3]: 32 µg/mL (≈ 83.4 µM)
